Biological target: T1, IRAK4 (Homo sapiens, UniProt Q9NWZ3)
T1 construct: purchased Carna 09-145
T1 sequence (Q9NWZ3 1-460): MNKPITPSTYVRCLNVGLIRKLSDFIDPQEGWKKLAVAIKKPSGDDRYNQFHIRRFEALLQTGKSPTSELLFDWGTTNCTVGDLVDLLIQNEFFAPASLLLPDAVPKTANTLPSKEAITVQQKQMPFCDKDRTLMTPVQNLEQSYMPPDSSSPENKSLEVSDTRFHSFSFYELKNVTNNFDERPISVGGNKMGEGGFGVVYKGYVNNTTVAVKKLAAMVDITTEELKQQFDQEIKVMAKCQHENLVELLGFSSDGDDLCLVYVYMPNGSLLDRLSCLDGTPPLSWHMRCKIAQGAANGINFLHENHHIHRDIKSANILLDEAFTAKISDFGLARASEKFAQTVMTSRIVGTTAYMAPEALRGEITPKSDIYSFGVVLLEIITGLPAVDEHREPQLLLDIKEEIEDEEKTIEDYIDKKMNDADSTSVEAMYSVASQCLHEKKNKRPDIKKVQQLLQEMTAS
Assay: Enzymatic experiment for IRAK4 kinase inhibitor (HTRF KinEASE-STK, phosphorylation of STK1)
Assay type: biochemical
Settings: 6 nM IRAK4, 0.4 uM STK1, 80 uM ATP, 37° C. for 90 min, read-out: Relative IC50
Method: Experimental materials: IRAK4 recombinant human […], purchased from Carna (Cat #09-145); ATP, purchased from Sigma (Cat #A7699-5G); Compound 26, purchased from Merck Millipore (Cat #531237); and HTRF KinEASE-STK Si kit, purchased from Cisbio (Cat #62ST1PEC).
Experimental method: Phosphorylation of STK1 can be detected using an HTRF assay kit. The experimental reaction was carried out in a 384-well plate (Greiner, Cat #784075) with a total reaction system of 20 uL. The reaction system mainly comprised 1× kinase buffer, […], […], 0.4 uM STK1 and 80 uM ATP. The target product prepared in Example 1 was serially diluted with DMSO at 10 concentration points, and transferred to an experimental assay plate at 100 nL. The reaction was started after 6 nM IRAK4 was added and stopped by adding a detection reagent (0.25×STK Antibody-Cryptate, 25 nM Streptavidin-XL665) after being in process at 37° C. for 90 min. After standing at room temperature for 60 min, an FRET signal was read on a Spark 10M or envision plate reader. (HTRF 665/615=signal value at 665 nm/signal value at 615 nm).
Data analysis: signal ratio (665/615) was converted to a percent rejection. Inhibition %=(max−sample)/(max−min)×100. “min” represents a ratio of signal values (665/615) for control well without enzyme, and “max” represents a ratio of signal values (665/615) for control well with […]. […] values for compounds were calculated by XLFit in the Excel. Y=Bottom+(Top−Bottom)/(1+(IC50/X)^HillSlope) Equation: […]

Compared with NC1CCC(c2nc3c(cnc4[nH]cc(C5CCOCC5)c43)[nH]2)CC1 (centres unmarked) [drawing 311], c1[nH]c2ncc3[nH]c(C4CCCCC4)nc3c2c1C1CCOCC1 is higher in IC50: under 0.1 µM for the first, 0.1 to 1 µM for the second.

CN1CCC(c2cn3c(cnc4[nH]cc(C5CCOCC5)c43)n2)C1 (centres unmarked) and CN1CCC(c2cn3c(cnc4[nH]cc(C5CCOCC5)c43)n2)CC1 fall in the same range of IC50: 0.1 to 1 µM for the first, 0.1 to 1 µM for the second.

c1[nH]c2ncc3nc(C4CCC5(CC4)CNC5)cn3c2c1C1CCOCC1 and c1[nH]c2ncc3nc(C4CCNCC4)cn3c2c1C1CCOCC1 cannot be ordered by IC50: under 0.1 µM for the first, under 0.1 µM for the second.

NC1CCC(c2cn3c(cnc4[nH]cc(C5CCOCC5)c43)n2)CC1 (centres unmarked) and CN(C)C1CCC(c2cn3c(cnc4[nH]cc(C5CCOCC5)c43)n2)CC1 (centres unmarked) cannot be ordered by IC50: under 0.1 µM for the first, under 0.1 µM for the second.

CN1CCC(c2cn3c(cnc4[nH]cc(C5CCC(C(N)=O)CC5)c43)n2)CC1 (centres unmarked) and CC(=O)N1CCC(c2cn3c(cnc4[nH]cc(C5CCOCC5)c43)n2)CC1 cannot be ordered by IC50: over 1 µM for the first, over 1 µM for the second.

c1[nH]c2ncc3nc(C4CCCCC4)cn3c2c1C1CCOCC1 and c1[nH]c2ncc3nc(C4CCCNC4)cn3c2c1C1CCOCC1 (centres unmarked) cannot be ordered by IC50: under 0.1 µM for the first, under 0.1 µM for the second.

First: c1[nH]c2ncc3nc(C4CCC(N5CCOCC5)CC4)cn3c2c1C1CCOCC1 (centres unmarked)
Second: c1[nH]c2ncc3nc(C4CCN(C5COC5)CC4)cn3c2c1C1CCOCC1
The IC50 of the first is lower: 0.1 to 1 µM for the first, over 1 µM for the second. The first is the more potent here.

First: CC1CC(c2cn3c(cnc4[nH]cc(C5CCOCC5)c43)n2)CCN1 (centres unmarked)
Second: CC1CNCCC1c1cn2c(cnc3[nH]cc(C4CCOCC4)c32)n1 (centres unmarked)
The IC50 of the first is higher: 0.1 to 1 µM for the first, under 0.1 µM for the second.

First: Cn1c(C2CCCCC2)nc2c3c(C4CCOCC4)c[nH]c3ncc21
Second: NC1CCC(c2nc3c(cnc4[nH]cc(C5CCOCC5)c43)[nH]2)CC1 (centres unmarked) [drawing 312]
The IC50 of the first is higher: 0.1 to 1 µM for the first, under 0.1 µM for the second. The second is the more potent here.

c1[nH]c2ncc3nc(C4CCOCC4)cn3c2c1C1CCOCC1 and CCN1CCC(c2cn3c(cnc4[nH]cc(C5CCOCC5)c43)n2)CC1 fall in the same range of IC50: 0.1 to 1 µM for the first, 0.1 to 1 µM for the second.

— patent US12582650B2, “IRAK4 kinase inhibitor and preparation method therefor” (ZHUHAI YUFAN BIOTECHNOLOGIES CO., LTD, priority 2019, dated 2026)
